# Laboratory results as given in patent US20090030037A1, “Sustained Release Formulation and Dosing Schedules of Leukotriene Synthesis Inhibitor for Human Therapy” (deCODE Genetics ehf., priority 2005, published 2009).
# Tested on: CRP
# Test: Study DG-031-201: Hs-CRP in serum
# Format: in vivo, human
# Conditions: for CRP, change: Study 201, 2-6 wks
# Experimental: Genet. 2004). Apart from FLAP, allele A of the SNP SG12S25 in the LTA4 hydrolase gene, another gene in the LT pathway, is also associated with MI, as described in PCT application no. PCT/US03/32556 and PCT/US04/30582 incorporated by reference.
# Patients who met the study eligibility criteria were enrolled and randomized into 3 different dose-level groups: (1) 64 patients on 250 mg/day therapy with DG-031 (250 mg q.d.), vs placebo; (2) 64 patients on 500 mg/day therapy with DG-031 (250 mg b.i.d.) vs placebo; and (3) 63 patients on 750 mg/day therapy with DG-031 (250 mg t.i.d.) vs placebo. […] All patients received 3 tablets per day. Treatment periods, 4 weeks in duration each, were separated by a 2-week washout period. The placebo tablets were identical in shape, color, form and taste to the active tablets except that they contained no active drug ingredients. Treatment with DG-031 or placebo was in addition to the subject's standard care, including all medications and treatment plan as prescribed by the subject's cardiologist prior to enrolment. A total of 191 subjects were enrolled, with 172 completing all 8 visits or 8 patients short of the target of 180 patients.
# The primary objective was to determine whether the FLAP inhibitor has a statistically significant effect, compared to placebo, on one or more biomarkers of MI risk, including: (1) ionomycin-induced LTB4 and MPO release by neutrophils ex vivo; (2) MPO, CRP, N-tyrosine, Lp-PLA2 or amyloid A in serum, or (3) LTE4 in urine. The secondary objective was to determine whether the effect of DG-031 was dose-dependent. The tertiary objective was to assess other biomarkers (See Results). Evaluation of safety and tolerability of the drug was also a primary endpoint.
# All data were analyzed according to a pre-established statistical analysis plan (SAP) and by intention-to-treat (ITT). Each arm of the study, as well as pooled sets (combining dose levels), was considered for the primary analysis. Each such set is an AB/BA cross-over design and in the primary analysis of efficacy, the levels of biomarkers of MI risk at the end of the treatment periods (visits 4 and 7) were used as primary response variables. The difference between DG-031 and placebo treatment was the primary outcome, assessed separately for each of the biomarkers. Treatment effect was tested using a two-sample t-test on the period differences for suitably transformed response variables, under an assumption of normality of the transformed data. We report treatment effect as one half of the observed mean differences in the two-sample t-test, with a 95% CI. No pre-tests for carry-over effect were performed as a part of the primary analysis. Tests for carry-over were done and are reported separately from results of primary analysis. All hypotheses were tested at a two-sided nominal significance level of 0.05 and p-values based on t-tests are reported. In addition, for the primary efficacy endpoints where the effects of the two highest doses on 10 primary variables were studied, a randomization test was performed which corrects for multiple testing and ensures that the key results are not affected by distributional concerns. In particular, 1 million permutations of the patients into the different study tracks were performed, generating a reference distribution for the maximum of the 10 t-statistics of the biomarkers under the null hypothesis of no drug effect. By comparing the observed t-statistic of each of the 10 biomarkers to this reference distribution, empirical p-values were computed. As was stated in the SAP prior to unblinding, it was considered likely that experimental manipulations would alter the effect of the drug on two of the primary markers; this was indeed the case and we are only reporting directly on 8 of the 10 primary markers but all 10 are included in the randomization test. […]
smiles,measurement,setting,value
"O=C(O)[C@@H](c1ccc(OCc2ccc3ccccc3n2)cc1)C1CCCC1 [DG-031, (R)-(+)-alpha-cyclopentyl-4-(2-quinolinylmethoxy)-Benzeneacetic acid]",Reduction in CRP,"250 mg BID and TID, end of wash-out period (week 6)",25%
same,"CRP, change",250 mg BID,−24%
same,"CRP, change",250 mg QD,−6%
same,"CRP, change",250 mg TID,−13% (St. 201)
same,"Carry-over effect, CRP","difference visit 2 to 5, 500 and 750 mg/day vs placebo",−0.28
same,Reduction of serum CRP,"higher two dose groups (250 mg BID and 250 mg TID), at 2 weeks, p=0.07",16%
